Assay results taken from ChEMBL document CHEMBL1909294, “Translating clinical findings into knowledge in drug safety evaluation--drug induced liver injury prediction system (DILIps)” (PLoS Comput Biol, 2011).

Experiments:
[1] = tested on: Hepatotoxicity;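 as to HepSE bilirubinemia: bilirubinemia hepatic side effect score drawn from the DILIps training data, a prediction system for drug-induced liver injury; call rule not given here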;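 as to HepSE cholecystitis: Cholecystitis-related hepatic side effect score drawn from the DILIps (drug-induced liver injury prediction) training data set; call rule not given here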;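 as to HepSE cholelithiasis: hepatic side effect score for cholelithiasis, drawn from the DILIps training data for predicting drug-induced liver injury; call rule not given here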;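 as to HepSE cirrhosis: cirrhosis hepatic side effect score taken from the DILIps (drug-induced liver injury prediction) training set; call rule not given here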;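 as to HepSE elevated liver function tests: hepatic side effect score for raised liver function tests, as recorded in the DILIps training set used for predicting drug-induced liver injury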; as to HepSE hepatic failure: call rule not given here;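 as to HepSE hepatomegaly: hepatic side effect score for hepatomegaly, taken from the training set of the DILIps drug-induced liver injury prediction system; call rule not given here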
[2] = tested on: Hepatotoxicity; remark: listed apart in the source;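 as to HepSE bilirubinemia: bilirubinemia hepatic side effect score drawn from the DILIps training data, a prediction system for drug-induced liver injury; call rule not given here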;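 as to HepSE cholecystitis: Cholecystitis-related hepatic side effect score drawn from the DILIps (drug-induced liver injury prediction) training data set; call rule not given here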;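 as to HepSE cholelithiasis: hepatic side effect score for cholelithiasis, drawn from the DILIps training data for predicting drug-induced liver injury; call rule not given here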;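 as to HepSE cirrhosis: cirrhosis hepatic side effect score taken from the DILIps (drug-induced liver injury prediction) training set; call rule not given here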;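 as to HepSE elevated liver function tests: hepatic side effect score for raised liver function tests, as recorded in the DILIps training set used for predicting drug-induced liver injury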; as to HepSE hepatic failure: call rule not given here
[3] = tested on: Hepatotoxicity; remark: listed apart in the source;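 as to HepSE bilirubinemia: bilirubinemia hepatic side effect score drawn from the DILIps training data, a prediction system for drug-induced liver injury; call rule not given here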;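 as to HepSE cholecystitis: Cholecystitis-related hepatic side effect score drawn from the DILIps (drug-induced liver injury prediction) training data set; call rule not given here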;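 as to HepSE cholelithiasis: hepatic side effect score for cholelithiasis, drawn from the DILIps training data for predicting drug-induced liver injury; call rule not given here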;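 as to HepSE cirrhosis: cirrhosis hepatic side effect score taken from the DILIps (drug-induced liver injury prediction) training set; call rule not given here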;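 as to HepSE elevated liver function tests: hepatic side effect score for raised liver function tests, as recorded in the DILIps training set used for predicting drug-induced liver injury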; as to HepSE hepatic failure: call rule not given here
[4] = tested on: Hepatotoxicity; remark: listed apart in the source;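 as to HepSE bilirubinemia: bilirubinemia hepatic side effect score drawn from the DILIps training data, a prediction system for drug-induced liver injury; call rule not given here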;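 as to HepSE cholecystitis: Cholecystitis-related hepatic side effect score drawn from the DILIps (drug-induced liver injury prediction) training data set; call rule not given here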;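 as to HepSE cholelithiasis: hepatic side effect score for cholelithiasis, drawn from the DILIps training data for predicting drug-induced liver injury; call rule not given here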;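 as to HepSE cirrhosis: cirrhosis hepatic side effect score taken from the DILIps (drug-induced liver injury prediction) training set; call rule not given here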;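 as to HepSE elevated liver function tests: hepatic side effect score for raised liver function tests, as recorded in the DILIps training set used for predicting drug-induced liver injury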; as to HepSE hepatic failure: call rule not given here
[5] = tested on: Hepatotoxicity; remark: listed apart in the source; as to HepSE hepatic failure: call rule not given here
[6] = tested on: Hepatotoxicity; remark: listed apart in the source; as to HepSE hepatic failure: call rule not given here
[7] = tested on: Hepatotoxicity; remark: listed apart in the source
[8] = tested on: Hepatotoxicity; remark: listed apart in the source
[9] = tested on: Hepatotoxicity; remark: listed apart in the source
[10] = tested on: Hepatotoxicity; remark: listed apart in the source
[11] = tested on: Hepatotoxicity; remark: listed apart in the source
[12] = tested on: Hepatotoxicity; remark: listed apart in the source
[13] = tested on: Hepatotoxicity; remark: listed apart in the source
[14] = tested on: Hepatotoxicity; remark: listed apart in the source

Compound	HepSE_bilirubinemia [1]	HepSE_cholecystitis [2]	HepSE_cholelithiasis [3]	HepSE_cirrhosis [4]	HepSE_elevated liver function tests [5]	HepSE_hepatic failure [6]	HepSE_hepatic necrosis [7]	HepSE_hepatitis [8]	HepSE_hepatomegaly [9]	HepSE_jaundice [10]	HepSE_liver disease [11]	HepSE_liver fatty [12]	HepSE_liver function tests abnormal [13]	HepSE_Combined Scores [14]	other results
CO[C@H]1/C=C/O[C@@]2(C)Oc3c(C)c(O)c4c(c3C2=O)C2=NC3(CCN(CC(C)C)CC3)NC2=C(NC(=O)/C(C)=C\C=C\[C@H](C)[C@H](O)[C@@H](C)[C@@H](O)[C@@H](C)[C@H](OC(C)=O)[C@@H]1C)C4=O [RIFABUTIN]															HepSE_bilirubinemia ([1]; Liver): 0; HepSE_cholecystitis ([2]; Liver): 0; HepSE_cholelithiasis ([3]; Liver): 0; HepSE_cirrhosis ([4]; Liver): 0; HepSE_elevated liver function tests ([5]; Liver): 0; HepSE_hepatic failure ([6]; Liver): 0; HepSE_hepatic necrosis ([7]; Liver): 0; HepSE_hepatitis ([8]; Liver): 1; HepSE_hepatomegaly ([9]; Liver): 0; HepSE_jaundice ([10]; Liver): 0; HepSE_liver disease ([11]; Liver): 0; HepSE_liver fatty ([12]; Liver): 0; HepSE_liver function tests abnormal ([13]; Liver): 0; HepSE_Combined Scores ([14]; Liver): 1
CO[C@H]1/C=C/O[C@@]2(C)Oc3c(C)c(O)c4c(O)c(c(/C=N/N5CCN(C)CC5)c(O)c4c3C2=O)NC(=O)/C(C)=C\C=C\[C@H](C)[C@H](O)[C@@H](C)[C@@H](O)[C@@H](C)[C@H](OC(C)=O)[C@@H]1C [RIFAMPIN]	0	0	0	0	0	0	0	1	0	1	0	0	1	3	
CO[C@H]1/C=C/O[C@@]2(C)Oc3c(C)c(O)c4c(O)c(c(/C=N/N5CCN(C6CCCC6)CC5)c(O)c4c3C2=O)NC(=O)/C(C)=C\C=C\[C@H](C)[C@H](O)[C@@H](C)[C@@H](O)[C@@H](C)[C@H](OC(C)=O)[C@@H]1C [RIFAPENTINE]	1	0	0	0	0	0	0	1	0	0	0	0	0	2	
CO[C@H]1/C=C/O[C@@]2(C)Oc3c(C)c(O)c4c(O)c(c5c(nc6cc(C)ccn65)c4c3C2=O)NC(=O)/C(C)=C\C=C\[C@H](C)[C@H](O)[C@@H](C)[C@@H](O)[C@@H](C)[C@H](OC(C)=O)[C@@H]1C [RIFAXIMIN]	0	0	0	0	0	0	0	0	0	0	0	0	0	0	
Nc1nc2ccc(OC(F)(F)F)cc2s1 [RILUZOLE]	0	1	0	0	0	0	0	1	0	1	0	0	0	3	
CC(N)C12CC3CC(CC(C3)C1)C2 (centres undefined) [RIMANTADINE]	0	0	0	0	0	0	0	0	0	0	0	0	0	0	
CCC(=O)[C@@]1(C)[C@H](C)C[C@H]2[C@@H]3CCC4=CC(=O)C=C[C@]4(C)[C@H]3[C@@H](O)C[C@@]21C [RIMEXOLONE]	0	0	0	0	0	0	0	0	0	0	0	0	0	0	
O=P(O)(O)C(O)(Cc1cccnc1)P(=O)(O)O [RISEDRONIC ACID]	0	0	0	0	0	0	0	0	0	0	0	0	0	0	
Cc1nc2n(c(=O)c1CCN1CCC(c3noc4cc(F)ccc34)CC1)CCCC2 [RISPERIDONE]	1	1	1	0	0	1	0	1	1	1	0	1	0	8	
CCN(C)C(=O)Oc1cccc([C@H](C)N(C)C)c1 [RIVASTIGMINE]	0	1	1	0	0	0	0	0	0	0	0	0	0	2	
CN(C)CCc1c[nH]c2ccc(Cn3cncn3)cc12 [RIZATRIPTAN]	0	0	0	0	0	0	0	0	0	0	0	0	0	0	
C=CC[N+]1([C@H]2C[C@H]3[C@@H]4CC[C@H]5C[C@H](O)[C@@H](N6CCOCC6)C[C@]5(C)[C@H]4CC[C@]3(C)[C@H]2OC(C)=O)CCCC1 [ROCURONIUM]	0	0	0	0	0	0	0	0	0	0	0	0	0	0	
CS(=O)(=O)c1ccc(C2=C(c3ccccc3)C(=O)OC2)cc1 [ROFECOXIB]	0	1	0	0	0	1	0	1	0	1	0	0	0	4	
CCCN(CCC)CCc1cccc2c1CC(=O)N2 [ROPINIROLE]	1	1	1	0	0	0	0	1	0	0	0	0	0	4	
CCCN1CCCC[C@H]1C(=O)Nc1c(C)cccc1C [ROPIVACAINE]	0	0	0	0	0	0	0	0	0	1	0	0	0	1	
CN(CCOc1ccc(CC2SC(=O)NC2=O)cc1)c1ccccn1 (centres undefined) [ROSIGLITAZONE]	1	0	0	0	0	1	0	1	0	0	0	0	0	3	
